Experimental data: patent US4921941A, “Orally active antiandrogens” (Schering Corporation, priority 1987, dated 1990)

How the values were obtained:
[1] = Plasma concentrations of flutamide active metabolite in rats after single oral doses of various esters (0-4 hours), gas-liquid chromatography; assay type: in vivo, male Sprague Dawley rats; conditions: rat; for Relative Rank (0-4 hour area): oral, 0-4 hour area relative to flutamide = 1.00; for Area under the 0-4 hour plasma level curve of flutamide active metabolite (0-4 Hours) / Plasma concentration of flutamide active metabolite, 2 Hours / Plasma concentration of flutamide active metabolite, 4 Hours: single oral dose, normalized to a 5 mg/kg dose of flutamide active metabolite; for Plasma concentration of flutamide active metabolite, 2 Hours / Plasma concentration of flutamide active metabolite, 4 Hours: average of 2 animals
[2] = Plasma concentrations of flutamide active metabolite for up to 16 hours after administration of esters or flutamide; assay type: in vivo, rats; conditions: rat; for 0-16 hr (area under the plasma level curve of flutamide active metabolite) / Plasma concentration of flutamide active metabolite, 0.5 hr / Plasma concentration of flutamide active metabolite, 1 hr / Plasma concentration of flutamide active metabolite, 2 hr / Plasma concentration of flutamide active metabolite, 4 hr / Plasma concentration of flutamide active metabolite, 8 hr / Plasma concentration of flutamide active metabolite, 16 hr: normalized to a 5 mg/kg dose of flutamide active metabolite; for Plasma concentration of flutamide active metabolite, 0.5 hr / Plasma concentration of flutamide active metabolite, 1 hr / Plasma concentration of flutamide active metabolite, 2 hr / Plasma concentration of flutamide active metabolite, 4 hr / Plasma concentration of flutamide active metabolite, 8 hr / Plasma concentration of flutamide active metabolite, 16 hr: average of 3 animals; for Relative Rank (0-16 hr): 0-16 hr area relative to flutamide = 1.00
Description: Plasma concentrations of the flutamide active metabolite were determined by gas-liquid chromatography in 300-350 gram male Sprague Dawley rats following single oral 5 mg/kg doses of the compounds listed. […]

| Molecule | Relative Rank (0-4 hour area) [1] | Area under the 0-4 hour plasma level curve of flutamide active metabolite (0-4 Hours) [1] | Plasma concentration of flutamide active metabolite, 2 Hours [1] | Plasma concentration of flutamide active metabolite, 4 Hours [1] | 0-16 hr (area under the plasma level curve of flutamide active metabolite) [2] | Plasma concentration of flutamide active metabolite, 0.5 hr [2] | Plasma concentration of flutamide active metabolite, 1 hr [2] | Plasma concentration of flutamide active metabolite, 2 hr [2] | Plasma concentration of flutamide active metabolite, 4 hr [2] | Plasma concentration of flutamide active metabolite, 8 hr [2] | Plasma concentration of flutamide active metabolite, 16 hr [2] | Relative Rank (0-16 hr) [2] |
| --- | --- | --- | --- | --- | --- | --- | --- | --- | --- | --- | --- | --- |
| L-Proline-[1-methyl-[[4-nitro-3-trifluoromethyl)phenyl]aminocarbonyl]ethyl ]ester, hydrochloride | 1.46 | 3510 ng·h/mL | 1059 ng/mL | 1393 ng/mL |  |  |  |  |  |  |  |  |
| CNCC(=O)OC(C)(C)C(=O)Nc1ccc([N+](=O)[O-])c(C(F)(F)F)c1 [sar] | 1.52 | 3650 ng·h/mL | 1345 ng/mL | 958 ng/mL |  |  |  |  |  |  |  |  |
| CC(C)C(=O)Nc1ccc([N+](=O)[O-])c(C(F)(F)F)c1 [H (flutamide), 2-methyl-N-[4-nitro-3-(trifluoromethyl)phenyl]propanamide, reference compound] | 1.00 | 2400 ng·h/mL | 715 ng/mL | 974 ng/mL | 8270 ng·h/mL | 210 ng/mL | 322 ng/mL | 614 ng/mL | 722 ng/mL | 649 ng/mL | 236 ng/mL | 1.00 |
| C[C@H](N)C(=O)NCC(=O)N(C)CC(=O)OC(C)(C)C(=O)Nc1ccc([N+](=O)[O-])c(C(F)(F)F)c1 [ala--gly--sar, L-alanyl-glycyl-N-methylglycine, [1-methyl-[[4-nitro-3-(trifluoromethyl)phenyl]aminocarbonyl]ethyl]ester] | 2.09 | 5020 ng·h/mL | 1952 ng/mL | 1115 ng/mL | 17200 ng·h/mL | 1079 ng/mL | 2029 ng/mL | 1365 ng/mL | 1803 ng/mL | 1005 ng/mL | 423 ng/mL | 2.08 |

Second part, the molecule after the results:

| Relative Rank (0-4 hour area) [1] | Area under the 0-4 hour plasma level curve of flutamide active metabolite (0-4 Hours) [1] | Plasma concentration of flutamide active metabolite, 2 Hours [1] | Plasma concentration of flutamide active metabolite, 4 Hours [1] | 0-16 hr (area under the plasma level curve of flutamide active metabolite) [2] | Plasma concentration of flutamide active metabolite, 0.5 hr [2] | Plasma concentration of flutamide active metabolite, 1 hr [2] | Plasma concentration of flutamide active metabolite, 2 hr [2] | Plasma concentration of flutamide active metabolite, 4 hr [2] | Plasma concentration of flutamide active metabolite, 8 hr [2] | Plasma concentration of flutamide active metabolite, 16 hr [2] | Relative Rank (0-16 hr) [2] | Molecule |
| --- | --- | --- | --- | --- | --- | --- | --- | --- | --- | --- | --- | --- |
| 1.44 | 3450 ng·h/mL | 1103 ng/mL | 1248 ng/mL |  |  |  |  |  |  |  |  | CN(CC(=O)OC(C)(C)C(=O)Nc1ccc([N+](=O)[O-])c(C(F)(F)F)c1)C(=O)CNC(=O)[C@@H](N)CCCCN [lys--gly--sar, L-lysyl-glycyl-N-methylglycine, [1-methyl-[[4-nitro-3-(trifluoromethyl)phenyl]aminocarbonyl]ethyl]ester] |
| 2.66 | 6400 ng·h/mL | 2277 ng/mL | 1847 ng/mL | 15600 ng·h/mL | 1392 ng/mL | 1907 ng/mL | 1751 ng/mL | 1170 ng/mL | 1054 ng/mL | 256 ng/mL | 1.89 | CC(C)(OC(=O)[C@@H]1CCCN1C(=O)CNC(=O)[C@@H](N)CCCCN)C(=O)Nc1ccc([N+](=O)[O-])c(C(F)(F)F)c1.Cl.Cl [lys--gly--pro, L-lysyl-glycyl-L-proline-[1-methyl-[[4-nitro-3-(trifluoromethyl)phenyl]aminocarbonyl]ethyl]ester, dihydrochloride] |
